Results as given in patent publication US12279521B2, “Materials for organic electroluminescent devices” (Merck Patent GmbH, priority 2019, dated 2025).
Values after ≈ are worked out from the molar mass of the structure shown. Like-named read-outs stand apart in the source and are kept apart here.

How the values were obtained:
[1] = Solubility in organic solvents via HPTLC (after 24 hours and 7 days); type: physicochemical; conditions: for Solubility after 24 hours, Cyclohexylbenzene / Solubility after 24 hours, Mesitylene / Solubility after 24 hours, Tetralin / Solubility after 24 hours, Toluene / solubility at 24 h: room temperature; for Solubility after 7 days, Cyclohexylbenzene / Solubility after 7 days, Mesitylene / Solubility after 7 days, Tetralin / Solubility after 7 days, Toluene / solubility at 7 days: 7 days storage at room temperature; for solubility at 24 h: 25 °C; for solubility at 24 h / solubility at 7 days: organic solvent or mixture, thermodynamic from solid
Method: One way of processing the materials of the invention is from solution. In addition, it is a feature of materials of the invention that their […] stability is elevated, as apparent from the long-term solubility data in Table 1.
Method of Determining Solubility Via HPTLC
Sample preparation: The material is weighed out in two 25 mg portions (W1, W2), 0.5 ml of solvent is added, and the mixture is shaken at 60° C. for 60 minutes and then at 25° C. and 600 rpm for 24 h. When the solution is clear, more solid material is added until a saturated solution is formed. After being cooled to room temperature, the samples are filtered through a syringe filter (0.2 μm). The solutions are stored in glass vials at room temperature for 7 days, and the solubility is determined by HPTLC on days 1 and 7. For this purpose, the filtered solutions are diluted.
Calibration: Making up a standard solution: about 6 mg of substance are dissolved in 20 ml of 2-methyl-THF. If it is not possible to dissolve the material under these conditions, the concentration can be reduced. The stock solution is diluted for the calibration (standardization).
Chromatographic conditions (HPTLC): plate: HPTLC RP 18 F254, 10×20 cm eluent: methanol/2-methyl-THF 70/30 (V/V)
HPTLC measurement: The HPTLC plate is scanned by a TLC scanner, peaks are integrated and a calibration function is determined.

[2] = Baking of emission layer film at elevated temperature: state of film; type: physicochemical; conditions: for State of film after baking at elevated temp.: EML mixture per Table 5
Text: The production of the corresponding OLED components is described below.
The emission layer is composed of at least one matrix material (host material) and an emitting dopant (emitter). In addition, it is possible to use mixtures of a plurality of matrix materials and co-dopants. Details given in such a form as TMM-A (92%):dopant (8%) mean here that the material TMM-A is present in the emission layer in a proportion by weight of 92% and dopant in a proportion by weight of 8%. The mixture for the emission layer is dissolved in toluene or optionally chlorobenzene. The typical solids content of such solutions is about 17 g/I when, as here, the layer thickness of 60 nm which is typical of a device is to be achieved by means of spin-coating. The layers are spun on in an inert gas atmosphere, argon in the present case, and baked for 10 minutes.

[3] = Ref. temp. 150, elevated temp. 180
[4] = cyclohexylbenzene, read-out: Solubility after 24 hours, Cyclohexylbenzene
[5] = mesitylene, read-out: Solubility after 24 hours, Mesitylene
[6] = tetralin, read-out: Solubility after 24 hours, Tetralin
[7] = toluene, read-out: Solubility after 24 hours, Toluene
[8] = cyclohexylbenzene, read-out: Solubility after 7 days, Cyclohexylbenzene
[9] = mesitylene, read-out: Solubility after 7 days, Mesitylene
[10] = tetralin, read-out: Solubility after 7 days, Tetralin
[11] = toluene, read-out: Solubility after 7 days, Toluene
[12] = Ref. temp. 150, elevated temp. 170
[13] = Ref. temp. 160, elevated temp. 170
[14] = Ref. temp. 160, elevated temp. 180

Solubility after 24 hours, Cyclohexylbenzene ([1]; cyclohexylbenzene)	Solubility after 7 days, Cyclohexylbenzene ([1]; cyclohexylbenzene)	Solubility after 24 hours, Mesitylene ([1]; mesitylene)	Solubility after 7 days, Mesitylene ([1]; mesitylene)	Solubility after 24 hours, Tetralin ([1]; tetralin)	Solubility after 7 days, Tetralin ([1]; tetralin)	Solubility after 24 hours, Toluene ([1]; toluene)	Solubility after 7 days, Toluene ([1]; toluene)	State of film after baking at elevated temp. [2, 3]	solubility at 24 h [1, 4]	solubility at 24 h [1, 5]	solubility at 24 h [1, 6]	solubility at 24 h [1, 7]	solubility at 7 days [1, 8]	solubility at 7 days [1, 9]	solubility at 7 days [1, 10]	solubility at 7 days [1, 11]	Structure (SMILES)	further results
<30 mg/mL	<25 mg/mL	<20 mg/mL	<20 mg/mL	<30 mg/mL	<25 mg/mL	<20 mg/mL	<20 mg/mL	clear	–	–	–	–	–	–	–	–	c1ccc(-c2cc(-c3ccccc3)cc(-c3cccc(-c4cccc(C5(c6cccc(-c7cccc(-c8cc(-c9ccccc9)cc(-c9ccccc9)c8)c7)c6)c6cc7c(cc6-c6c5ccc5c6-c6ccccc6C56c5ccccc5-c5ccccc56)OCO7)c4)c3)c2)cc1 [Compound M-0226]	solubility in toluene and mesitylene compared with B-2 ([1]; toluene and mesitylene, versus B-2): significantly better; long-term stability of the solutions compared with B-2 ([1]; versus B-2): significantly better
–	–	–	–	–	–	–	–	clear	< 50 mg/mL	> 50 mg/mL	> 50 mg/mL	> 50 mg/mL	< 50 mg/mL	> 50 mg/mL	> 50 mg/mL	> 50 mg/mL	c1ccc(-c2cc(-c3ccccc3)cc(-c3cccc(-c4cccc(C5(c6cccc(-c7cccc(-c8cc(-c9ccccc9)cc(-c9ccccc9)c8)c7)c6)c6ccccc6-c6c(-c7cccc(-c8ccccc8)c7)cccc65)c4)c3)c2)cc1 [Compound M-0162]	–
>50 mg/mL	>50 mg/mL	>50 mg/mL	>50 mg/mL	>50 mg/mL	<50 mg/mL	>50 mg/mL	>50 mg/mL	–	–	–	–	–	–	–	–	–	c1ccc(-c2cccc(-c3cc(-c4cccc(-c5ccccc5)c4)cc(C4(c5cc(-c6cccc(-c7ccccc7)c6)cc(-c6cccc(-c7ccccc7)c6)c5)c5ccccc5-c5c(-c6ccccc6)cccc54)c3)c2)cc1 [Compound M-0005]	solubility in cyclohexylbenzene compared with B-1 ([1]; cyclohexylbenzene, versus B-1): significantly better; long-term stability of the solution in mesitylene compared with B-1 ([1]; mesitylene, versus B-1): significantly better; State of film after baking at elevated temp. [2, 12]: clear; State of film after baking at elevated temp. [2, 13]: clear
–	–	–	–	–	–	–	–	–	> 50 mg/mL	< 1 mg/mL	> 50 mg/mL	< 1 mg/mL	< 1 mg/mL	< 1 mg/mL	< 20 mg/mL	< 1 mg/mL	c1ccc(-c2cc(-c3ccccc3)cc(-c3cccc(-c4cccc(C5(c6cccc(-c7cccc(-c8cc(-c9ccccc9)cc(-c9ccccc9)c8)c7)c6)c6ccccc6-c6ccccc65)c4)c3)c2)cc1 [Compound B-2, reference compound]	State of film after baking at elevated temp. [2, 14]: slightly cloudy
<50 mg/mL	<50 mg/mL	<50 mg/mL	<50 mg/mL	>50 mg/mL	>50 mg/mL	<50 mg/mL	<50 mg/mL	clear	–	–	–	–	–	–	–	–	c1ccc(-c2cccc(-c3cc(-c4cccc(-c5ccccc5)c4)cc(C4(c5cc(-c6cccc(-c7ccccc7)c6)cc(-c6cccc(-c7ccccc7)c6)c5)c5ccccc5-c5c(-c6ccccc6-c6ccccc6)cccc54)c3)c2)cc1 [Compound M-0043]	–
–	–	–	–	–	–	–	–	cloudy	< 20 mg/mL	> 50 mg/mL	> 50 mg/mL	> 50 mg/mL	< 20 mg/mL	< 40 mg/mL	> 50 mg/mL	> 50 mg/mL	c1ccc(-c2cccc(-c3cc(-c4cccc(-c5ccccc5)c4)cc(C4(c5cc(-c6cccc(-c7ccccc7)c6)cc(-c6cccc(-c7ccccc7)c6)c5)c5ccccc5-c5ccccc54)c3)c2)cc1 [Compound B-1, reference compound]	State of film after baking at elevated temp. [2, 13]: slightly cloudy; State of film after baking at elevated temp. [2, 14]: cloudy
<1 mg/mL	<1 mg/mL	>50 mg/mL	50 mg/mL (≈ 49.8 mM)	>50 mg/mL	>50 mg/mL	>50 mg/mL	>50 mg/mL	clear	–	–	–	–	–	–	–	–	c1ccc(-c2cc(-c3ccccc3)cc(-c3cccc(-c4cccc(C5(c6cccc(-c7cccc(-c8cc(-c9ccccc9)cc(-c9ccccc9)c8)c7)c6)c6ccccc6-c6c(-c7ccccc7)cccc65)c4)c3)c2)cc1 [Compound M-0002]	State of film after baking at elevated temp. [2, 14]: clear; baking of the layer at higher temperature, cloudiness, compared with B-2 ([2]; versus B-2): can be baked at higher temperature without cloudiness
–	–	–	–	–	–	–	–	–	> 50 mg/mL	< 50 mg/mL	< 50 mg/mL	> 50 mg/mL	> 50 mg/mL	< 40 mg/mL	< 50 mg/mL	> 50 mg/mL	c1ccc(-c2cccc(-c3cc(-c4cccc(-c5ccccc5)c4)cc(C4(c5cc(-c6cccc(-c7ccccc7)c6)cc(-c6cccc(-c7ccccc7)c6)c5)c5ccccc5-c5ccc(-c6ccccc6)cc54)c3)c2)cc1 [Compound B-3, reference compound]	–
–	–	–	–	–	–	–	–	clear	> 50 mg/mL	> 50 mg/mL	> 50 mg/mL	> 50 mg/mL	> 50 mg/mL	> 50 mg/mL	> 50 mg/mL	> 50 mg/mL	Cc1cc(C)c(-c2cccc3c2-c2ccccc2C3(c2cc(-c3cc(-c4ccc(C(C)(C)C)cc4)cc(-c4ccc(C(C)(C)C)cc4)c3)cc(-c3cc(-c4ccc(C(C)(C)C)cc4)cc(-c4ccc(C(C)(C)C)cc4)c3)c2)c2cc(-c3cc(-c4ccc(C(C)(C)C)cc4)cc(-c4ccc(C(C)(C)C)cc4)c3)cc(-c3cc(-c4ccc(C(C)(C)C)cc4)cc(-c4ccc(C(C)(C)C)cc4)c3)c2)c(C)c1 [Compound M-0086]	–
<40 mg/mL	<40 mg/mL	<30 mg/mL	<30 mg/mL	<40 mg/mL	<40 mg/mL	<30 mg/mL	<30 mg/mL	–	–	–	–	–	–	–	–	–	Cc1ccc2c(c1)-c1c(-c3cccc(-c4ccccc4)c3)cccc1C2(c1cccc(-c2cccc3c2-c2ccccc2C3(C)C)c1)c1cccc(-c2cccc3c2-c2ccccc2C3(C)C)c1 [Compound M-0172]	State of film after baking at elevated temp. [2, 12]: clear
–	–	–	–	–	–	–	–	slightly cloudy	–	–	–	–	–	–	–	–	c1ccc(-c2cccc(-c3cc(-c4ccccc4)cc(-c4cccc(C5(c6cccc(-c7cc(-c8ccccc8)cc(-c8cccc(-c9ccccc9)c8)c7)c6)c6ccccc6-c6ccccc65)c4)c3)c2)cc1 [Compound B-4, reference compound]	–
